In patent US20050197350A1, “Novel quinoline, tetrahydroquinazoline, and pyrimidine derivatives and methods of treatment related to the use thereof” (TAISHO PHARMACEUTICAL CO., LTD., priority 2003, published 2005):

These molecules were tested on MCH receptors (assay: MCH receptor activity class (method not given)). Settings: MCH receptor activity class 1-3 (percent of control at 10^-7 M or IC50).
`CC(C)c1cccc(C(C)C)c1NC(=O)NC[C@H]1CC[C@@H](Nc2cc(N(C)C)c3ccccc3n2)CC1` [compound 2396] was tested, and the class was 1 (Class 1: The value of percent of control at 10^−7 M was less than 40% or the value of IC50 was less than 50 nM.). In the case of `Cc1ccc([N+](=O)[O-])c(NC(=O)NC[C@H]2CC[C@@H](Nc3cc(N(C)C)c4ccccc4n3)CC2)c1C` [compound 2397], the class was 3 (Class 3 The value of percent of control at 10^−7 M was more than 60% or the value of IC50 was more than 200 nM.). `CN(C)c1cc(N[C@H]2CC[C@@H](CNC(=O)Nc3c(Br)cc(F)cc3Br)CC2)nc2ccccc12` [compound 2398] was tested, and the class was 3 (Class 3 The value of percent of control at 10^−7 M was more than 60% or the value of IC50 was more than 200 nM.). In the case of `CN(C)c1cc(N[C@H]2CC[C@@H](CNC(=O)Nc3c(Cl)cccc3Cl)CC2)nc2ccccc12` [compound 2399], the class was 3 (Class 3 The value of percent of control at 10^−7 M was more than 60% or the value of IC50 was more than 200 nM.). In the case of `COc1ccc(C)cc1NC(=O)NC[C@H]1CC[C@@H](Nc2cc(N(C)C)c3ccccc3n2)CC1` [compound 2400], the class was 3 (Class 3 The value of percent of control at 10^−7 M was more than 60% or the value of IC50 was more than 200 nM.). For `Cc1cccc([N+](=O)[O-])c1NC(=O)NC[C@H]1CC[C@@H](Nc2cc(N(C)C)c3ccccc3n2)CC1` [compound 2401], the class was 3 (Class 3 The value of percent of control at 10^−7 M was more than 60% or the value of IC50 was more than 200 nM.). `CN(C)c1cc(N[C@H]2CC[C@@H](CNC(=O)Nc3ccc(F)c(F)c3)CC2)nc2ccccc12` [compound 2402] was tested, and the class was 3 (Class 3 The value of percent of control at 10^−7 M was more than 60% or the value of IC50 was more than 200 nM.). In the case of `CN(C)c1cc(N[C@H]2CC[C@@H](CNC(=O)Nc3cc(F)cc(F)c3)CC2)nc2ccccc12` [compound 2403], the class was 3 (Class 3 The value of percent of control at 10^−7 M was more than 60% or the value of IC50 was more than 200 nM.). With `CN(C)c1cc(N[C@H]2CC[C@@H](CNC(=O)Nc3ccc(F)c(Cl)c3)CC2)nc2ccccc12` [compound 2404] the class was 3 (Class 3 The value of percent of control at 10^−7 M was more than 60% or the value of IC50 was more than 200 nM.). In the case of `CN(C)c1ccnc(N[C@H]2CC[C@@H](CNC(=O)Nc3ccccc3Cl)CC2)n1` [compound 2405], the class was 3 (Class 3 The value of percent of control at 10^−7 M was more than 60% or the value of IC50 was more than 200 nM.). In the case of `Cc1cccc(C)c1NC(=O)NC[C@H]1CC[C@@H](Nc2nccc(N(C)C)n2)CC1` [compound 2406, N-[(cis-4-{[4-(dimethylamino)pyrimidin-2-yl]amino}cyclohexyl)methyl]-N′-(2,6-dimethylphenyl)urea], the class was 1 (Class 1: The value of percent of control at 10^−7 M was less than 40% or the value of IC50 was less than 50 nM.). `CN(C)c1ccnc(N[C@H]2CC[C@@H](CNC(=O)Nc3ccc(F)cc3F)CC2)n1` [compound 2407, N-(2,4-difluorophenyl)-N′-[(cis-4-{[4-(dimethylamino)pyrimidin-2-yl]amino}cyclohexyl)methyl]urea] was tested, and the class was 2 (Class 2: The value of percent of control at 10^−7 M was from 40% to 60% or the value of IC′50 was from 50 nM to 200 nM.). For `CCc1cccc(C)c1NC(=O)NC[C@H]1CC[C@@H](Nc2nccc(N(C)C)n2)CC1` [compound 2408, N-[(cis-4-{[4-(dimethylamino)pyrimidin-2-yl]amino}cyclohexyl)methyl]-N′-(2-ethyl-6-methylphenyl)urea], the class was 1 (Class 1: The value of percent of control at 10^−7 M was less than 40% or the value of IC50 was less than 50 nM.). `CN(C)c1ccnc(N[C@H]2CC[C@@H](CNC(=O)Nc3ccc(F)cc3)CC2)n1` [compound 2410, N-[(cis-4-{[4-(dimethylamino)pyrimidin-2-yl]amino}cyclohexyl)methyl]-N′-(4-fluorophenyl)urea] was tested, and the class was 2 (Class 2: The value of percent of control at 10^−7 M was from 40% to 60% or the value of IC′50 was from 50 nM to 200 nM.). In the case of `CSc1ccc(NC(=O)NC[C@H]2CC[C@@H](Nc3nccc(N(C)C)n3)CC2)cc1` [compound 2411], the class was 3 (Class 3 The value of percent of control at 10^−7 M was more than 60% or the value of IC50 was more than 200 nM.). With `CN(C)c1ccnc(N[C@H]2CC[C@@H](CNC(=O)Nc3ccccc3C(F)(F)F)CC2)n1` [compound 2412] the class was 3 (Class 3 The value of percent of control at 10^−7 M was more than 60% or the value of IC50 was more than 200 nM.). `Cc1cc(C)c(NC(=O)NC[C@H]2CC[C@@H](Nc3nccc(N(C)C)n3)CC2)c(C)c1` [compound 2413, N-[(cis-4-{[4-(dimethylamino)pyrimidin-2-yl]amino}cyclohexyl)methyl]-N′-mesitylurea] was tested, and the class was 1 (Class 1: The value of percent of control at 10^−7 M was less than 40% or the value of IC50 was less than 50 nM.). In the case of `Cc1ccccc1NC(=O)NC[C@H]1CC[C@@H](Nc2nccc(N(C)C)n2)CC1` [compound 2414], the class was 3 (Class 3 The value of percent of control at 10^−7 M was more than 60% or the value of IC50 was more than 200 nM.). `CN(C)c1ccnc(N[C@H]2CC[C@@H](CNC(=O)Nc3c(Cl)cc(Cl)cc3Cl)CC2)n1` [compound 2415, N-[(cis-4-{[4-(dimethylamino)pyrimidin-2-yl]amino}cyclohexyl)methyl]-N′-(2,4,6-trichlorophenyl)urea] was tested, and the class was 1 (Class 1: The value of percent of control at 10^−7 M was less than 40% or the value of IC50 was less than 50 nM.). `CN(C)c1ccnc(N[C@H]2CC[C@@H](CNC(=O)Nc3c(F)cc(Br)cc3Br)CC2)n1` [compound 2417] was tested, and the class was 1 (Class 1: The value of percent of control at 10^−7 M was less than 40% or the value of IC50 was less than 50 nM.). In the case of `CCc1cccc(CC)c1NC(=O)NC[C@H]1CC[C@@H](Nc2nccc(N(C)C)n2)CC1` [compound 2418, N-(2,6-diethylphenyl)-N′-[(cis-4-{[4-(dimethylamino)pyrimidin-2-yl]amino}cyclohexyl)methyl]urea], the class was 1 (Class 1: The value of percent of control at 10^−7 M was less than 40% or the value of IC50 was less than 50 nM.). In the case of `CN(C)c1ccnc(N[C@H]2CC[C@@H](CNC(=O)Nc3c(Cl)cccc3C(F)(F)F)CC2)n1` [compound 2419], the class was 1 (Class 1: The value of percent of control at 10^−7 M was less than 40% or the value of IC50 was less than 50 nM.). `Cc1cccc(Cl)c1NC(=O)NC[C@H]1CC[C@@H](Nc2nccc(N(C)C)n2)CC1` [compound 2420, N-(2-chloro-6-methylphenyl)-N′-[(cis-4-{[4-(dimethylamino)pyrimidin-2-yl]amino}cyclohexyl)methyl]urea] was tested, and the class was 1 (Class 1: The value of percent of control at 10^−7 M was less than 40% or the value of IC50 was less than 50 nM.). With `CN(C)c1ccnc(N[C@H]2CC[C@@H](CNC(=O)NCc3ccccc3Cl)CC2)n1` [compound 2421] the class was 3 (Class 3 The value of percent of control at 10^−7 M was more than 60% or the value of IC50 was more than 200 nM.). For `CCc1ccccc1NC(=O)NC[C@H]1CC[C@@H](Nc2nccc(N(C)C)n2)CC1` [compound 2423], the class was 3 (Class 3 The value of percent of control at 10^−7 M was more than 60% or the value of IC50 was more than 200 nM.). For `CN(C)c1ccnc(N[C@H]2CC[C@@H](CNC(=O)Nc3ccccc3I)CC2)n1` [compound 2424], the class was 3 (Class 3 The value of percent of control at 10^−7 M was more than 60% or the value of IC50 was more than 200 nM.). For `Cc1cccc(C(C)C)c1NC(=O)NC[C@H]1CC[C@@H](Nc2nccc(N(C)C)n2)CC1` [compound 2425], the class was 1 (Class 1: The value of percent of control at 10^−7 M was less than 40% or the value of IC50 was less than 50 nM.). For `CC(C)c1ccccc1NC(=O)NC[C@H]1CC[C@@H](Nc2nccc(N(C)C)n2)CC1` [compound 2426], the class was 3 (Class 3 The value of percent of control at 10^−7 M was more than 60% or the value of IC50 was more than 200 nM.). For `Cc1c(NC(=O)NC[C@H]2CC[C@@H](Nc3nccc(N(C)C)n3)CC2)cccc1[N+](=O)[O-]` [compound 2427, N-[(cis-4-{[4-(dimethylamino)pyrimidin-2-yl]amino}cyclohexyl)methyl]-N′-(2-methyl-3-nitrophenyl)urea], the class was 1 (Class 1: The value of percent of control at 10^−7 M was less than 40% or the value of IC50 was less than 50 nM.). In the case of `CCCc1ccccc1NC(=O)NC[C@H]1CC[C@@H](Nc2nccc(N(C)C)n2)CC1` [compound 2428, N-[(cis-4-{[4-(dimethylamino)pyrimidin-2-yl]amino}cyclohexyl)methyl]-N′-(2-propylphenyl)urea], the class was 2 (Class 2: The value of percent of control at 10^−7 M was from 40% to 60% or the value of IC′50 was from 50 nM to 200 nM.). For `Cc1cccc(C(C)(C)C)c1NC(=O)NC[C@H]1CC[C@@H](Nc2nccc(N(C)C)n2)CC1` [compound 2429, N-(2-tert-butyl-6-methylphenyl)-N′-[(cis-4-{[4-(dimethylamino)pyrimidin-2-yl]amino}cyclohexyl)methyl]urea], the class was 1 (Class 1: The value of percent of control at 10^−7 M was less than 40% or the value of IC50 was less than 50 nM.). `CN(C)c1ccnc(N[C@H]2CC[C@@H](CNC(=O)Nc3ccccc3C(C)(C)C)CC2)n1` [compound 2430, N-(2-tert-butylphenyl)-N′-[(cis-4-{[4-(dimethylamino)pyrimidin-2-yl]amino}cyclohexyl)methyl]urea] was tested, and the class was 1 (Class 1: The value of percent of control at 10^−7 M was less than 40% or the value of IC50 was less than 50 nM.). For `Cc1c(Cl)cccc1NC(=O)NC[C@H]1CC[C@@H](Nc2nccc(N(C)C)n2)CC1` [compound 2431, N-(3-chloro-2-methylphenyl)-N′-[(cis-4-{[4-(dimethylamino)pyrimidin-2-yl]amino}cyclohexyl)methyl]urea], the class was 1 (Class 1: The value of percent of control at 10^−7 M was less than 40% or the value of IC50 was less than 50 nM.). For `CN(C)c1ccnc(N[C@H]2CC[C@@H](CNC(=O)Nc3c(F)cc(Br)cc3F)CC2)n1` [compound 2432], the class was 1 (Class 1: The value of percent of control at 10^−7 M was less than 40% or the value of IC50 was less than 50 nM.). In the case of `CN(C)c1ccnc(N[C@H]2CC[C@@H](CNC(=O)Nc3ccc(Cl)cc3C(F)(F)F)CC2)n1` [compound 2433], the class was 2 (Class 2: The value of percent of control at 10^−7 M was from 40% to 60% or the value of IC′50 was from 50 nM to 200 nM.).
